The text below walks through data of patent US20210346495A1, “METHODS AND COMPOSITIONS COMPRISING AN NFKB INHIBITOR AND AN ADJUVANT” (priority 2018, published 2021).

The test system of data set [1] is RAW macrophages. The data set can be described thus: IL-6 expression of RAW macrophages with LPS and NF-kB inhibitors (Example 2).
Data set [2] deals with systemic TNF-a and IL-6. The data set can be described thus: Systemic cytokines after vaccination with NF-kB inhibitor, CpG and ovalbumin (Example 2). Conditions: one hour post-vaccination. In kind it is in vivo, mouse.
Data set [3] relates to systemic TNF-α and IL-6. The data set can be described thus: Systemic cytokines after gp120 vaccination. The format is in vivo, mouse. Conditions: gp120 antigen, 1 h.
Procedure: To examine how this would translate in vivo, the inventors vaccinated mice with CpG (50 μg), Pam3CSK4 (20 μg) and R848 (50 μg) using gp120 as the antigen.
Mice were anesthetized lightly with isoflurane and injected intramuscularly in the hind leg with 50 uL containing antigen, adjuvant and PBS. […] CpG dose, 50 μg. SN50, 500 TNF-aN, 30 μg. IL-6N, 30 μg.
Blood was collected from mice at specified time points in 0.2 mL heparin coated collection tubes (VWR Scientific). Serum was isolated via centrifugation 2000×g for 5 min. Supernatant was collected and stored at −80° C. until use. Serum was analyzed using BD Cytometric Bead Array Mouse Th1/Th2/Th17 cytokine kit or Mouse Inflammation cytokine kit according to manufacturer's protocol. Briefly, beads containing antibodies for desired cytokines were mixed with 50 μL serum and 50 μL PE detection reagent and incubated for 2 h. Beads were washed and analyzed using BD Accuri C6 flow cytometer. Data was analyzed using BD Accuri C6 software and Graphpad Prism.
For data set [4], the system named is RAW 264.7 macrophages. The data set can be described thus: RAW macrophage cytokine analysis, IL-6 with LPS (Example 3). The format is cell-based, mouse. Conditions: for inhibition of IL-6 expression in vitro: capsaicin 200 μM, honokiol 20 μM, WA 400 nM. An excerpt: To begin exploring alternative NF-κB inhibitors, the inventors examined the literature for promising candidates. Due to the strong correlation between NF-KB activation and sepsis, cancer and autoimmune disorders, a large library of NF-κB inhibitors have been identified. The inventors first wanted to analyze the potential of a variety small molecule NF-κB inhibitors to inhibit inflammation in vitro in combination with lipopolysaccharide (LPS), a TLR4 agonist. The inventors chose several common commercially available NF-κB inhibitors and tested them in RAW macrophages. […] To determine if immune potentiation was specific to NFkB or general to all anti-inflammatory molecules, the inventors included the most common, FDA approved anti-inflammatory drugs acetaminophen (10 mM) and ibuprofen (800 μM). The inventors treated RAW macrophages with inhibitors and LPS and assayed the supernatant for IL-6 secretion (FIG. 18A).
The inventors examined the activities of the synthesized compounds in order to understand how the various functional groups affect anti-inflammatory action or adaptive immune response (FIGS. 23, 25). The inventors treated RAW macrophages with honokiol derivatives and LPS and analyzed IL-6 expression. The addition of LPS alone without a honokiol derivative gave high levels of IL-6 expression (6848 pg/mL). The addition of honokiol decreased IL-6 levels to 260 pg/mL, a decrease of 26-fold.
RAW macrophage cytokine analysis: RAW 264.7 macrophages were passaged and plated in a cell culture treated 12-well plate at 0.5×10^6 cells/well in 1 mL DMEM containing 10% FBS. Cells were grown for 2 days. Media was exchanged for 1 mL DMEM containing 10% HIFBS. Inhibitors were added at indicated concentrations and incubated for 45 min. After 45 min, LPS was added at 100 ng/mL and incubated at 37° C. and 5% CO2 for 24 h. Cell supernatant was removed and analyzed using BD Cytometric Bead Array Mouse Inflammation Kit.

The test system of data set [5] is systemic TNF-a and IL-6. The data set can be described thus: Systemic cytokines, AddaVax vaccines with CpG or Pam3CSK4 (Example 2). Conditions: CpG or Pam3CSK4, ovalbumin, one hour. In kind it is in vivo, mouse.
For data set [6], the system named is systemic cytokines. As to the kind of experiment: Plasma cytokine analysis after OVA/CpG/AddaVax vaccination (Example 3). Conditions: for systemic MCP-1 / systemic IFN-γ: combined with CpG; for systemic IFN-γ: 24 h; for systemic IL-6 vs CpG alone, dose study / systemic TNF-α vs CpG alone, all doses / systemic TNF-α, comparison between doses: honokiol 200, 400, 800 μg, capsaicin 1, 5, 20 μg. The format is in vivo, mouse.

For data set [7], the system named is ovalbumin. As to the kind of experiment: Anti-ovalbumin antibody titer day 21, AddaVax vaccines (Example 2). In kind it is in vivo, mouse. An excerpt: The inventors next wanted to examine how capsaicin, honokiol and WA would work with other TLR agonists. Additionally, the inventors wanted to compare these inhibitors to the most commonly used anti-inflammatory drugs, ibuprofen and acetaminophen. The inventors formulated the vaccines using AddaVax, an oil-in-water emulsion to ensure solubility of the inhibitors. The inventors used either CpG, a TLR 9 agonist or Pam3CSK4, a TLR 1/2 agonist as the immune adjuvant and ovalbumin as the antigen. The inventors analyzed systemic cytokines one hour post-vaccination. […] On day 21 the inventors analyzed the anti-ovalbumin antibody titer.

Data set [8] concerns ovalbumin (OVA). As to the kind of experiment: Anti-OVA antibody quantification day 21 (Example 3). In kind it is in vivo, mouse.
Data set [9] in a line: Pain response observed after vaccination. The format is in vivo, mouse. Conditions: original dose 20 μg.
Data set [10] deals with non-human primate (NHP) primary peripheral blood mononuclear cells (PBMCs). The data set can be described thus: NHP PBMCs stimulated with LPS with or without SN50. Conditions: 6 h. In kind it is cell-based. How it is done:
To understand how this may translate to human vaccinations, the inventors treated THP-1 monocytes with […] LPS with or without SN50. […] Additionally, the inventors examined the effects of SN50 on non-human primate (NHP) primary peripheral blood mononuclear cells (PBMCs). The inventors stimulated NHP PBMCs with SN50 and LPS or LPS alone for 6 h and analyzed the cell supernatant for pro-inflammatory cytokines. […] This implies that SN50 may work similarly in NHP and humans as it does in mice.

Setting [11] is: inhibitor 45 min before 100 ng/mL LPS, 3 h.
The mark [12] stands for this setting: 100 μg OVA, 50 μg CpG + inhibitor, AddaVax, 1 h.
The mark [13] stands for this setting: 100 μg OVA, 50 μg CpG, AddaVax, 1 h.

Entries after “also recorded” stand apart in the source; their conditions may differ.

For `COc1cc(O)c2c(c1)/C=C/C[C@H](O)[C@H](O)C(=O)/C=C\C[C@H](C)OC2=O` [5-z-o, 5Z-7-Oxozeaenol], in [1] (setting [11]), the IL-6 expression entry is “complete reduction of IL-6 to background levels; also recorded: completely inhibited IL-6 expression”.

With `O=C(/C=C/c1ccc(O)c(O)c1)OCCc1ccccc1` [CAPE, Caffeic acid phenethyl ester], in data set [1] (setting [11]), the IL-6 expression entry is “complete reduction of IL-6 to background levels; also recorded: completely inhibited IL-6 expression”. Besides, in [2], the “systemic IL-6” value is on record as “about a two-fold decrease in IL-6 levels” and the “systemic TNF-a” value is “no change in systemic TNF-a levels compared to CpG alone”.

As for `CCOCc1nc2c(N)nc3ccccc3c2n1CC(C)(C)O` [R848], in data set [3], the “systemic TNF-α and IL-6, effect of adding SN50 to the named adjuvant” value is “significant decrease in systemic cytokines”.

As to `CC(/C=C/C(=O)NO)=C\[C@@H](C)C(=O)c1ccc(N(C)C)cc1` [TSA], the IL-6 expression entry in data set [1] (setting [11]) is “complete reduction of IL-6 to background levels”.

For the compound `CC1=C(CO)C(=O)O[C@@H]([C@@H](C)[C@H]2CC[C@H]3[C@@H]4C[C@H]5O[C@]56[C@@H](O)C=CC(=O)[C@]6(C)[C@H]4CC[C@]23C)C1` [WA, Withaferin A], the “inhibition of IL-6 expression in vitro” value in data set [4] was “most effective at inhibiting IL-6 expression in vitro”. For the same compound, the IL-6 expression entry in data set [1] (setting [11]) is “decreases in proinflammatory cytokine activity without entirely blocking expression; also recorded: completely inhibited IL-6 expression”. For the same compound, in data set [5], the “systemic IL-6” value is reported as “less effective at decreasing systemic IL-6 levels”. Further, in data set [6] (setting [12]), the “decrease of systemic TNF-α vs CpG” value was 1.8 fold and the “systemic IL-6” value is listed as “did not decrease IL-6 expression significantly”. In addition, in data set [2], the “systemic IL-6” value is “about a two-fold decrease in IL-6 levels” and the “systemic TNF-a” value is “no change in systemic TNF-a levels compared to CpG alone”.

As to `CC(=O)Nc1ccc(O)cc1` [acetaminophen], the anti-ovalbumin antibody titer result in [7] is given as “decreases in antibody titer”. In addition, the “systemic IL-6” value in [5] is “less effective at decreasing systemic IL-6 levels”; in data set [6] (setting [12]) it was “did not decrease IL-6 expression significantly”. In addition, the “decrease of systemic TNF-α vs CpG” value in data set [6] (setting [12]) worked out at 1.8 fold. The “anti-OVA antibody level lower than CpG alone” value in data set [8] was 2.4 fold.

Consider `COc1cc(CNC(=O)CCCCC=CC(C)C)ccc1O` [capsaicin, 8-methyl-N-vanillyl-6-nonenamide], for which, in data set [4], the “inhibition of IL-6 expression in vitro” value was “most effective at inhibiting IL-6 expression in vitro”. For the same compound, the IL-6 expression entry in [1] (setting [11]) is on record as “reduced levels of IL-6”. The pain response entry in data set [9] is “pain response was observed”. Besides, in data set [5], the “systemic IL-6” value was “decreased to levels consistent with PBS” and the “systemic TNF-a” value is given as “comparable to PBS alone”. For the same compound, in data set [6] (setting [12]), the “decrease of systemic TNF-α vs CpG” value was found to be 28 fold and the “reduction of systemic IL-6 vs CpG” value amounted to 20 fold. Moreover, the “systemic IL-6” value in data set [6] (setting [13]) came to 47.4 pg/mL. In addition, in data set [6], the “systemic MCP-1” value is given as “slightly elevated MCP-1 levels” and the “systemic IFN-γ” value is reported as “increased IFN-γ levels at 24 h compared to CpG alone”. Moreover, in [6] (1 h), the “systemic IL-6 vs CpG alone, dose study” value is “only decreased with 400 μg and 800 μg honokiol and 20 μg capsaicin”; the “systemic TNF-α vs CpG alone, all doses” value is on record as “decreased TNF-α levels significantly across all doses compared to CpG alone”; the “systemic TNF-α, comparison between doses” value was “Doses of 5 μg and 20 μg decreased levels of TNF-α significantly more than 1 μg”. For the same compound, the “anti-OVA antibodies in the serum vs CpG alone” value in [8] (1 μg and 5 μg) is “did not change level of anti-OVA antibodies in the serum compared to CpG alone”. The “anti-OVA antibodies in the serum vs CpG alone” value in data set [8] (20 μg) was “significantly increased serum levels”. Also, in [2], the “systemic IL-6” value is “IL-6 levels consistent with PBS injection” and the “systemic TNF-a” value was “returning the systemic TNF-a levels to background”.

`COc1cc(O)cc(O)c1C(=O)/C=C/c1ccccc1` [cardamonin, Cardamonin]: the IL-6 expression entry in [1] (setting [11]) is “completely inhibited IL-6 expression”; in [1] (inhibitor 45 min before 100 ng/mL LPS, 3 h, listed as Cardamonin) it was “complete reduction of IL-6 to background levels”. In data set [2], the “systemic TNF-a” value is “no change in systemic TNF-a levels compared to CpG alone”.

Consider `COc1cc(/C=C/C(=O)CC(=O)/C=C/c2ccc(O)c(OC)c2)ccc1O` [curcumin], for which, in data set [1] (setting [11]), the IL-6 expression result is given as “did not demonstrate a change in IL-6 activity in vitro”. Further, in data set [2], the “systemic IL-6” value is given as “did not significantly alter the IL-6 levels” and the “systemic TNF-a” value is on record as “increasing the average expression levels”.

In the case of `C=CCc1ccc(O)c(-c2ccc(O)c(CC=C)c2)c1` [honokiol], the “inhibition of IL-6 expression in vitro” value in data set [4] is listed as “most effective at inhibiting IL-6 expression in vitro”. In addition, in data set [4] (honokiol derivative study), the IL-6 expression was 260 pg/mL and the “decrease of IL-6 vs LPS alone” value was 26 fold. Also, the IL-6 expression entry in [1] (setting [11]) is reported as “decreases in proinflammatory cytokine activity without entirely blocking expression; also recorded: reduced levels of IL-6”. The “decrease in systemic IL-6” value in [5] was found to be 4 fold. Also, in data set [6] (setting [12]), the “decrease of systemic TNF-α vs CpG” value is given as 2.3 fold and the “reduction of systemic IL-6 vs CpG” value came to 3.5 fold. Also, the “systemic IL-6” value in [6] (setting [13]) is 266 pg/mL. Also, in data set [6], the “systemic MCP-1” value is listed as “slightly elevated MCP-1 levels” and the “systemic IFN-γ” value was “increased IFN-γ levels at 24 h compared to CpG alone”. Also, in data set [6] (1 h), the “systemic IL-6 vs CpG alone, dose study” value was “only decreased with 400 μg and 800 μg honokiol and 20 μg capsaicin”; the “systemic TNF-α vs CpG alone, all doses” value is “significant decrease in TNF-α expression compared to CpG alone”; the “systemic TNF-α, comparison between doses” value was “no significant difference between the different doses”. For the same compound, in [8] (honokiol 200, 400, 800 μg), the “anti-OVA antibodies vs CpG alone, all doses” value was “all doses of honokiol increased levels of anti-OVA antibodies compared to CpG alone” and the “dose with the highest anti-OVA antibody level” value is 400 µg. For the same compound, in data set [2], the “systemic IL-6” value was “about a two-fold decrease in IL-6 levels” and the “systemic TNF-a” value is reported as “reduced the TNF-a levels by two-fold”.

With `CC(C)Cc1ccc(C(C)C(=O)O)cc1` (stereo not shown) [ibuprofen], the anti-ovalbumin antibody titer entry in data set [7] is “decreases in antibody titer”. In addition, the “systemic IL-6” value in data set [5] is given as “less effective at decreasing systemic IL-6 levels”. For the same compound, in data set [6] (setting [12]), the “decrease of systemic TNF-α vs CpG” value came out at 1.4 fold and the “systemic IL-6” value was “did not decrease IL-6 expression significantly”. For the same compound, the “systemic TNF-α” value in data set [6] (setting [13]) was determined as 738 pg/mL. For the same compound, the “anti-OVA antibody level lower than CpG alone” value in [8] worked out at 3.2 fold.

For `O=c1cc(-c2ccc(O)c(O)c2)oc2cc(O)cc(O)c12` [luteolin], the IL-6 expression entry in data set [1] (setting [11]) is reported as “decreases in proinflammatory cytokine activity without entirely blocking expression”.

`Oc1ccc(C=Cc2cc(O)cc(O)c2)cc1` [resveratrol]: the IL-6 expression entry in data set [1] (setting [11]) is recorded as “decreases in proinflammatory cytokine activity without entirely blocking expression”.

Take Pam3CSK4: in data set [3], the “systemic TNF-α and IL-6, effect of adding SN50 to the named adjuvant” value is reported as “significant decrease in systemic cytokines”.

For lipopolysaccharide [LPS], the IL-6 expression in data set [4] (honokiol derivative study) is on record as 6848 pg/mL; in data set [1] (100 ng/mL LPS, 3 h post-activation), 362 pg/mL. Moreover, the “TNF-α and IL-6 in the cell supernatant” value in data set [10] was “high levels of TNF-α and IL-6”.
